Experimental data: patent US6545131B1, “Tissue specific prodrug” (priority 1997, dated 2003)
Starred links: 1 amine or outer side, 2 acyl side, 3 side chain; linkers in the order of their positions; H or OH if unused. Residues, ends and D or L forms follow the SMILES beside them. *: point of attachment. Mu = morpholinocarbonyl, O=C(N1CCOCC1)*; AMC = Cc1cc(=O)oc2cc(N*)ccc12; Morpholide = C1CN(*)CCO1; CO = O=C([*:1])[*:2]

Experiments:
[1] = tested on: TSU-Pr1 cells; assay: Clonogenic survival of TSU-Pr1 cells after 72 hours exposure to TG analogs; assay type: cell-based, human; settings: TSU-Pr1, 72 hours exposure; mean (n=5) ± standard error; read-out: LC50 (concentration needed to kill 50% of clonogenic cells)
Protocol: The primary amine-containing thapsigargin analogs of the invention have non-specific toxicity toward cells. This toxicity is measured as the concentration of analog needed to kill 50% of clonogenic cells (LC50). The LC50 of the analogs of the invention is desirably at most 20 μM, preferably at most 5 μM, and more preferably at most 500 nM of analog.
Percentage clonogenic survival of TSU-Pr1 (2×10^5 cells) following 72 hours of exposure to varying concentrations of TG analogs was performed as described in Martikainen et al. Cancer Res., 51, 4693-4700 (1991).
The IC50 results are mean (n=3)±standard error. The LC50 results are mean (n=5)±standard error. The entry “ND” stands for “not determined”. Clonogenic survival not determined above 10 μM for dBTG. Analogs with −boc have a t-butoxycarbonyl (boc) protected amino group.
The androgen responsive PSA-producing LNCaP and androgen independent PSA non-producing TSU-Pr1 are human prostate cancer lines were obtained from ATCC (Rockville, Md.) and maintained by serial passage in RPMI 1640 media containing 10% fetal calf serum with 100 units/ml penicillin G, and 100 units/ml streptomycin sulfate (antibiotics from M.A. Bioproducts, Walkerville, Md.) as standard media in 5% CO2/95% air at 37° C. The origins and characteristics of the LNCaP and TSU-Pr1 cell lines are described in Horoszewicz, et al., Cancer Res., 43:1809-1818, (1980)and Iizumi, et al., J. Urol, 137: 1304-1306, (1987).

[2] = target: T1, PSA (prostate specific antigen) (Homo sapiens, UniProt P07288); assay: Cleavage of AMC-labelled peptide substrates by purified PSA (fluorescence of released AMC; Lineweaver-Burke kinetics); assay type: biochemical; settings: 0.2 mM substrate
T1 construct: PSA was purified from human seminal plasma; from tissue; host or cells: human seminal plasma
T1 sequence (P07288 25-261): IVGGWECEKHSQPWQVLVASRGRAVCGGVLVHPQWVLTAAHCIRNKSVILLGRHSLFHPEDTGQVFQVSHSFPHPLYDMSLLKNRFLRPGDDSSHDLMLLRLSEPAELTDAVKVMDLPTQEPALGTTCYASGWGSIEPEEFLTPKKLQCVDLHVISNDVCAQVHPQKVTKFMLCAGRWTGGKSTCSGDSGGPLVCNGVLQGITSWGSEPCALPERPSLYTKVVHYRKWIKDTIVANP
Protocol: (§1) The peptides discussed herein were custom synthesized by Enzyme Systems Products (Dublin, Calif.) and, after HPLC separation and purification to >95%, the molecular weights were confirmed by mass spectroscopy. All peptides had morpholinocarbonyl protecting the amino terminus and 7-amino-4-methylcoumarin (AMC) attached via an amide bond to the carboxyl group of the carboxy-terminal amino acid. Peptides were first dissolved in distilled water (5 mM) and then diluted into PSA assay buffer (50 mM Tris/0.1M NaCl pH 7.8). The glutamine-AMC peptide had the amino terminus and side chain amine unprotected and was obtained from Bachem (Torrance, Calif.).
(§2) PSA was purified from human seminal plasma as described in Christensson, et al. Eur. J. Biochem. 194:755-765, (1990). Plasmin, urokinase, tissue plasminogen activator (TPA), human plasma and porcine pancreatic kallikrein and a 1-antichymotrypsin were obtained from Calbiochem (San Diego, Calif.). All other proteases were obtained from Sigma Chemical Co. (St. Louis, Mo.). Mouse serum was obtained from East Acres Biologicals (South Bridge, Mass.). Goat and calf sera were obtained from Gibco BRL (Grand Island, N.Y.). Rat serum was obtained in-house from sacrificed animals. Human serum was obtained from volunteers.
(§3) Cleavage was studied by measuring fluorescence change secondary to AMC release. Fluorescence detection was carried out with a Fluoroskan II 96 well fluorometric plate reader (ICN Biomedicals, Costa Mesa, Calif.), with excitation wavelength 355 nm and emission wavelength 460 nm. Data were collected and analyzed using Deltasoft III software (Biometallics, Princeton, N.J.). All reactions were performed at room temperature by the addition of substrate and proteases into PSA buffer, described below, in a final volume of 200 μL. The results were determined from the initial linear increase of fluorescence and were expressed as the picomoles of AMC released per minute based upon comparison to a standard curve of the fluorescence of known amounts of AMC (i.e., fluorescence was linear form 20 to 300 picomoles of AMC). The data were analyzed by Lineweaver-Burke reciprocal plots to determine the Michaelis-Menten constant (i.e., Km) expressed as the amount of substrate needed to saturate half of the enzyme and the catalytic rate constant (i.e., kcat) expressed as the amount of substrate converted to product per time per amount of enzyme.
(§4) Each assay contains 200 picomoles of the particular protease and 0.2 mM concentration of the particular substrate (i.e., 40,000 picomoles/200 μL of assay volume). The amino acid sequences expressed in one letter amino acid code represent the following amino acid sequences in the three letter amino acid code: EHSSKLQ (Glu-His-Ser-Ser-Lys-Leu-Gln; SEQ ID NO:10), QNKISYQ (Gln-Asn-Lys-Ile-Ser-Tyr-Gln; SEQ ID NO:11), ENKISYQ (Glu-Asn-Lys-Ile-Ser-Tyr-Gln; SEQ ID NO:12), and ATKSKQH (Ala-Thr-Lys-Ser-Lys-Gln-His; SEQ ID NO:13). Determinations listed in the table were carried out with substrates at 0.2 mM concentration in the PSA assay buffer (50 mM Tris/0.1M NaCl pH 7.8). The entry “UD” stands for “undetectable” and means that at most, 0.1 pmole of substrate cleavage per minute per 200 pmole protease took place. Asterisks represent experiments not performed. Abbreviations are as follows: PSA (prostate specific antigen), Chymo (chymotrypsin), Urokin (urokinase), TPA (tissue plasminogen activator), Thromb (thrombin), Kallik (human kallikrein, hK1).
The data in Table 2 are the results of kinetic experiments with the peptide substrates used in Example 1. Experimental details are found in Example 1.
The amino acid sequences expressed in one letter amino acid code represent the following amino acid sequences in the three letter amino acid code: EHSSKLQ (Glu-His-Ser-Ser-Lys-Leu-Gln; SEQ ID NO:10), HSSKLQ (His-Ser-Ser-Lys-Leu-Gln; SEQ ID NO:7), SKLQ (Ser-Lys-Leu-Gln; SEQ ID NO:1), and ATKSKQH (Ala-Thr-Lys-Ser-Lys-Gln-His; SEQ ID NO:13). […]

[3] = tested on: Elastase; assay: Peptide-AMC cleavage by purified extracellular protease; assay type: biochemical; settings: 0.2 mM substrate, PSA assay buffer pH 7.8
Protocol: as §1, §2, §3, §4

[4] = target: T2, Plasmin (Homo sapiens, UniProt P00747); assay: as above; assay type: biochemical; settings: 0.2 mM substrate, PSA assay buffer pH 7.8
T2 construct: purchased Calbiochem
T2 sequence (P00747 581-810 limits assumed, species assumed): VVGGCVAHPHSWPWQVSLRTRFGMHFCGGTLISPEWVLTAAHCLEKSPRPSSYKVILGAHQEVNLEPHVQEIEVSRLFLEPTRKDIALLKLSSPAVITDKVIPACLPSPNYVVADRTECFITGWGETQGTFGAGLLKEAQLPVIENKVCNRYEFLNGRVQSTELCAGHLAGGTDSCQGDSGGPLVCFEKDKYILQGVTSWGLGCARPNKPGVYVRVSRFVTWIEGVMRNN
T2 sequence (P00747 97-580 partner limits assumed, species assumed): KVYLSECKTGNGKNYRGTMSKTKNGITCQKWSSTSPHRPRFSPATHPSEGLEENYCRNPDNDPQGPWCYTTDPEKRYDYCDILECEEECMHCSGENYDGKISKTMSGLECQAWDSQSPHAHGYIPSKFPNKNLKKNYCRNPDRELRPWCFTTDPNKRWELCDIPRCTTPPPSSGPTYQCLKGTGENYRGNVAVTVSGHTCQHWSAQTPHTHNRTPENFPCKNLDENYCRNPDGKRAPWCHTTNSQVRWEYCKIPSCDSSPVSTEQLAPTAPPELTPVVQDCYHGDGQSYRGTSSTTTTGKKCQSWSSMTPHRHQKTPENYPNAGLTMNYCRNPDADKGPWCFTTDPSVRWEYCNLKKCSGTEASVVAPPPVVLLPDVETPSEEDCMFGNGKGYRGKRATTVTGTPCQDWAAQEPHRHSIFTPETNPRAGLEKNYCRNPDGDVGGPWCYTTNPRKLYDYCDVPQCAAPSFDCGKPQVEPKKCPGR
Protocol: as §1, §2, §3, §4

[5] = tested on: Trypsin; assay: as above; assay type: biochemical; settings: 0.2 mM substrate, PSA assay buffer pH 7.8
Protocol: as §1, §2, §3, §4

[6] = target: T3, chymotrypsin (Bos taurus, UniProt P00766); assay: as above; assay type: biochemical; settings: 0.2 mM substrate, PSA assay buffer pH 7.8
T3 construct: purchased Sigma Chemical Co
Protocol: as §1, §2, §3, §4

[7] = target: T4, thrombin (Homo sapiens, UniProt P00734); assay: as above; assay type: biochemical; settings: 0.2 mM substrate, PSA assay buffer pH 7.8
T4 construct: purchased Sigma Chemical Co
Protocol: as §1, §2, §3, §4

[8] = target: T5, tissue plasminogen activator (TPA) (Homo sapiens, UniProt P00750); assay: as above; assay type: biochemical; settings: 0.2 mM substrate, PSA assay buffer pH 7.8
T5 construct: purchased Calbiochem
T5 sequence (P00750 36-562, species assumed): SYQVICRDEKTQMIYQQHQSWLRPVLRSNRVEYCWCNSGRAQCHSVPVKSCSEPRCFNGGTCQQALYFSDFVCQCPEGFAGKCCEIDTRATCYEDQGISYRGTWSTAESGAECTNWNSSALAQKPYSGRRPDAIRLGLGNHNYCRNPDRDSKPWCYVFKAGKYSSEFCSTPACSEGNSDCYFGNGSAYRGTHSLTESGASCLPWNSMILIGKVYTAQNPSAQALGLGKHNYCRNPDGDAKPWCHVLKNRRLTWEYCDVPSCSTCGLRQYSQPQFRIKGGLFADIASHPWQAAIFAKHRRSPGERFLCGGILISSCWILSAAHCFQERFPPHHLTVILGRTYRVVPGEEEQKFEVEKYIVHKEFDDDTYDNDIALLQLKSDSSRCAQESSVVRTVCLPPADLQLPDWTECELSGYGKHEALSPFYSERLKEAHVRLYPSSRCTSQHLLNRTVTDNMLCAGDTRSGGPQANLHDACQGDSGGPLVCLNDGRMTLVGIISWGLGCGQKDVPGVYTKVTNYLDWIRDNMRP
Protocol: as §1, §2, §3, §4

[9] = Stability of PSA substrates in serum (AMC release); assay type: in vitro ADME; settings: 0.2 mM substrate
Text: as §2, §3
Because the prodrug can be given systemically via the blood, it is useful to determine the stability of the substrates in sera from a variety of species. The substrates and experimental details are found as described in Example 1.
The amino acid sequences expressed in one letter amino acid code represent the following amino acid sequences in the three letter amino acid code: EHSSKLQ (Glu-His-Ser-Ser-Lys-Leu-Gln; SEQ ID NO:10), QNKISYQ (Gln-Asn-Lys-Ile-Ser-Tyr-Gln; SEQ ID NO:11), ENKISYQ (Glu-Asn-Lys-Ile-Ser-Tyr-Gln; SEQ ID NO:12) and ATKSKQH (Ala-Thr-Lys-Ser-Lys-Gln-His; SEQ ID NO:13). Determinations listed in the table were carried out with substrates at 0.2 mM concentration in the PSA assay buffer (50 mM Tris/0.1M NaCl pH 7.8). AMC is 7-amino-4-methylcoumarin. The human serum used was 100% for each assay. The entry “UD” stands for “undetectable”, and means that not more than 0.01 picomole of substrate per minute was cleaved.

[10] = target: T6, Cathepsin B (Homo sapiens, UniProt P07858); assay: PSA substrate cleavage by purified intracellular protease; assay type: biochemical; settings: 0.2 mM substrate, pH 7.8; SKLQ, KLQ, LQ in 1.4% acetonitrile/buffer, Q-AMC in 0.2% formic acid/buffer
T6 construct: purchased Sigma Chemical Co
Protocol: as §3
(§5) A family of peptide substrates based upon the EHSSKLQ (SEQ ID NO:10) sequence was assayed for activity for the intracellular proteases, and the results given in Table 4.
(§6) The amino acid sequences expressed in one letter amino acid code represent the following amino acid sequences in the three letter amino acid code: EHSSKLQ (Glu-His-Ser-Ser-Lys-Leu-Gln; SEQ ID NO:10), The shorter sequences are formed by deleting amino acids from the amino terminal side of the sequence. Determinations listed in the table were carried out with substrates at 0.2 mM concentration in the PSA assay buffer (50 mM Tris/0.1M NaCl pH 7.8), except SKLQ (SEQ ID NO:1), KLQ and LQ, which were carried out in 1.4% acetonitrile/buffer and Q-AMC which was carried out in 0.2% formic acid/buffer, at pH 7.8. The entry “UD” stands for “undetectable” and means that at most, 0.1 pmole of substrate cleavage per minute per 200 pmole protease took place. Asterisks represent experiments not performed. Abbreviations are as follows: PSA (prostate specific antigen), Cath B, C, D (Cathepsins, B, C, D), Esterase (porcine liver esterase).

[11] = target: T7, Cathepsin C (Homo sapiens, UniProt P53634); assay: as above; assay type: biochemical; settings: 0.2 mM substrate, pH 7.8; SKLQ, KLQ, LQ in 1.4% acetonitrile/buffer, Q-AMC in 0.2% formic acid/buffer
T7 construct: purchased Sigma Chemical Co
T7 sequence (P53634 25-463): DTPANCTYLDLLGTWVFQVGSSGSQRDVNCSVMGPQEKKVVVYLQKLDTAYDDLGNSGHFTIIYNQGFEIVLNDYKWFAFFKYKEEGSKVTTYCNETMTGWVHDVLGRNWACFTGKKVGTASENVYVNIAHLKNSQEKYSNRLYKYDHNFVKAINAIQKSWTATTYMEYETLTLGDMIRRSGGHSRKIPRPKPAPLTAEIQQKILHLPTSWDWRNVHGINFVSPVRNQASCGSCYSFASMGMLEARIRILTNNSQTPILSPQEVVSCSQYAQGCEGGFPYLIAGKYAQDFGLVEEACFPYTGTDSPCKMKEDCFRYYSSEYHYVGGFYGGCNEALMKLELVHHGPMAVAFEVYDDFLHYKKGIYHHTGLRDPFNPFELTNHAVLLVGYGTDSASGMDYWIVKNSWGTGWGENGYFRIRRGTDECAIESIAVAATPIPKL
Protocol: as §3, §5, §6

[12] = tested on: porcine liver esterase; assay: as above; assay type: biochemical; settings: 0.2 mM substrate, pH 7.8; SKLQ, KLQ, LQ in 1.4% acetonitrile/buffer, Q-AMC in 0.2% formic acid/buffer
Protocol: as §3, §5, §6

8-O-(2-[4-t-butoxycarbonylaminophenyl]acetyl)-8-O-debutanoylthapsigargin [AAT-boc]
CC50 [1]: > 10 µM

C/C=C(/C)C(=O)OC1C(C)=C2C(C1OC(=O)CCCCCCC)C(C)(OC(C)=O)CC(OC(=O)Cc1ccc(N)cc1)C1(O)C2OC(=O)C1(C)O (centres unmarked) [AAT, 8-O-(2-[4-aminophenyl]acetyl)-8-O-debutanoylthapsigargin]
CC50 [1]: > 10 µM

C/C=C(/C)C(=O)OC1C(C)=C2C(C1OC(=O)CCCCCCC)C(C)(OC(C)=O)CC(OC(=O)c1ccc(NC(=O)OC(C)(C)C)cc1)C1(O)C2OC(=O)C1(C)O (centres unmarked) [ABT-boc, 8-O-(4-t-butoxycarbonylaminobenzoyl)-8-O-debutanoylthapsigargin]
CC50 [1]: 12 ± 0.3 µM

CC[C@H](C)[C@H](NC(=O)[C@H](CCCCN)NC(=O)[C@H](CC(N)=O)NC(=O)[C@H](CCC(N)=O)NC(=O)N1CCOCC1)C(=O)N[C@@H](CO)C(=O)N[C@@H](Cc1ccc(O)cc1)C(=O)N[C@@H](CCC(N)=O)C(=O)Nc1ccc2c(C)cc(=O)oc2c1 [QNKISYQ, Gln-Asn-Lys-Ile-Ser-Tyr-Gln] ({Morpholide-CO}-QNKISYQ-{AMC})
Picomoles of substrate cleaved/minute/200 pmoles of indicated protease: PSA ([2]; PSA assay buffer pH 7.8, room temperature): 16.8 picomoles/minute/200 pmoles pr | Picomoles of substrate cleaved/minute/200 pmoles of indicated protease: Elastase [3]: 9.0 picomoles/minute/200 pmoles pr | Picomoles of substrate cleaved/minute/200 pmoles of indicated protease: Plasmin [4]: UD (at most, 0.1 pmole of substrate cleavage per minute per 200 pmole protease took place) | Picomoles of substrate cleaved/minute/200 pmoles of indicated protease: Trypsin [5]: UD (at most, 0.1 pmole of substrate cleavage per minute per 200 pmole protease took place) | Picomoles of substrate cleaved/minute/200 pmoles of indicated protease: Chymo [6]: 9.0 picomoles/minute/200 pmoles pr | Picomoles of substrate cleaved/minute/200 pmoles of indicated protease: Thromb [7]: 0.4 picomoles/minute/200 pmoles pr | Picomoles of substrate cleaved/minute/200 pmoles of indicated protease: TPA [8]: 0.4 picomoles/minute/200 pmoles pr | picomles AMC released/minute: Calf [9]: UD (not more than 0.01 picomole of substrate per minute was cleaved) | picomles AMC released/minute: Fetal Calf [9]: 11.60 picomoles/minute | picomles AMC released/minute: Goat [9]: 5.54 picomoles/minute | picomles AMC released/minute: Mouse [9]: 1.67 picomoles/minute | picomles AMC released/minute: Rat [9]: 10.7 picomoles/minute | picomles AMC released/minute: Human ([9]; human serum 100%): 1.54 picomoles/minute

KLQ: shorter sequence formed by deleting amino acids from the amino terminal side of EHSSKLQ; AMC substrate (Mu-Lys-Leu-Gln-{AMC}; also: AMC substrate)
picomoles of peptide cleaved/min/200 picomoles protease: PSA ([2]; pH 7.8, SKLQ, KLQ, LQ in 1.4% acetonitrile/buffer, Q-AMC in 0.2% formic acid/buffer): 0.4 picomoles/min/200 picomoles pr | picomoles of peptide cleaved/min/200 picomoles protease: Cath B [10]: 87.0 picomoles/min/200 picomoles pr | picomoles of peptide cleaved/min/200 picomoles protease: Cath C [11]: UD (at most, 0.1 pmole of substrate cleavage per minute per 200 pmole protease took place) | picomoles of peptide cleaved/min/200 picomoles protease: Esterase [12]: UD (at most, 0.1 pmole of substrate cleavage per minute per 200 pmole protease took place)
